Series [1] deals with WI38 normal human lung fibroblasts. In words: Proliferation assay (MTT, 72 h) on normal lung fibroblasts WI38. The format is cell-based. The following applies: WI-38, read-out: IC50 WI38/HFF-1 (WI38). As for the experimental part:
(§1) Human carcinoma cell lines A549 (lung carcinoma), HeLa (cervical carcinoma), SW620 (colorectal adenocarcinoma, metastatic), and CFPAC-1 (pancreatic cancer, derived from metastatic: liver), normal human lung (WI38) and foreskin (HFF-1) fibroblasts were obtained from the American Type Culture Collection (ATCC). Cells were cultured in humidified atmosphere at 37 °C with 5% CO2. As growth medium, Dulbecco’s modified Eagle medium (DMEM) was used with the addition of foetal bovine serum (10%), L-glutamine (2 mM) and antibiotics: streptomycin (100 µg/ml) and penicillin (100 U/ml).
(§2) Cells were seeded onto 96-well microtiter plates at a seeding density of 3000 cells/well for carcinoma cell lines, and 5000 cells/well for normal human fibroblasts. The next day, cells were treated with test agents in five different concentrations (0.01–100 µM) and further incubated for 72 h. […] Following 72 h incubation, the MTT assay was performed and measured absorbances were transformed into percentage of cell growth as described previously. Results were obtained from three independent experiments. IC50 values were calculated using linear regression analysis and results were statistically analysed by ANOVA, Tukey post-hoc test (p < .05).

The subject of series [2] is HeLa (cervical carcinoma). Description: Proliferation assay (MTT, 72 h) on HeLa. Type of series: cell-based. The settings on record: Homo sapiens. As for the experimental part: as §1, §2
In series [3] the test system is CFPAC-1 (ductal pancreatic adenocarcinoma). Description: Proliferation assay (MTT, 72 h) on CFPAC-1. The following applies: Homo sapiens. Type of series: cell-based. How it is done: as §1, §2
The test system of series [4] is A549 (lung carcinoma). In words: Proliferation assay (MTT, 72 h) on A549. Type of series: cell-based. The following applies: Homo sapiens, A549 lung adenocarcinoma. As for the experimental part:
as §1, §2

The subject of series [5] is SW620 (colorectal adenocarcinoma, metastatic). In words: Proliferation assay (MTT, 72 h) on SW620. Type of series: cell-based. The following applies: Homo sapiens, SW-620. As for the experimental part:
as §1, §2

As to `Fc1ccc(-n2cc(Cn3ccc4cc(F)ccc43)nn2)cc1` [Compound 10a, 1-{[1-(4-Fluorophenyl)-1H-1,2,3-triazol-4-yl]methyl}-5-fluoro-1H-indole], the IC50 in series [1], in series [2], in series [3], in series [4] and in series [5] was more than 100 µM in each case.

Usually melting point stands for the temperature of the solid-liquid transition. `Fc1ccccc1-n1cc(Cn2cc(Br)c3c(Cl)ncnc32)nn1` [Compound 9d, 5-Bromo-4-chloro-7-{[1–(2-fluorophenyl)-1 H-1,2,3-triazol-4-yl]methyl}-7 H-pyrrolo[2,3-d]pyrimidine] yielded a melting point of 145 to 147 °C. Also, in series [1], the IC50 is 48.5 µM. For the same compound, the IC50 in series [2] came to 20 µM. For the same compound, the IC50 in series [3] is 65.1 µM. Further, the IC50 in series [4] worked out at 86.4 µM. The compound further registered an IC50 in series [5] of 65.9 µM.

With `Fc1ccc(-n2cc(Cn3cnc4ccccc43)nn2)cc1` [Compound 12a, 1-{[1-(4-fluorophenyl)-1H-1,2,3-triazol-4-yl]met-hyl}-1H-benzo[d]imidazole], the IC50 in series [1] was found to be 91.9 µM; in series [2], 71.7 µM; in series [3] it was 86.5 µM; in series [4], 76.3 µM; in series [5], 99.9 µM.

For `FC(F)(F)c1ccc(-n2cc(Cn3cnc4c(Cl)nccc43)nn2)cc1` [Compound 5c, 4-Chloro-1-{[1-(4-(trifluoromethyl)phenyl)-1H-1,2,3-triazol-4-yl]methyl}-1H-imidazo[4,5-c]pyridine], the melting point fell in the range of 151 to 154 °C. In addition, the IC50 in series [1] worked out at 5.21 µM. In series [2], the IC50 is 22.5 µM. In series [3], this compound came in with an IC50 of 7.39 µM. The compound further displayed an IC50 in series [4] of 9.43 µM. This compound showed an IC50 in series [5] of 11.8 µM.

Regarding `Fc1ccccc1-n1cc(Cn2ccc3c(Cl)ncnc32)nn1` [Compound 8d, 4-Chloro-7-{[1-(2-fluorophenyl)-1H-1,2,3-triazol-4-yl]methyl}-7H-pyrrolo[2,3-d]pyrimidine], the melting point was in the range of 112 to 114 °C. In series [1], the IC50 was 22.5 µM. For the same compound, in series [2], the IC50 was 83.3 µM. In series [3], this compound gave an IC50 of 35.2 µM. In series [4], this compound came in with an IC50 of 69 µM. This compound also came in with an IC50 in series [5] of 65.5 µM.

Consider `O=c1cc(Cn2cc(Cn3ccc4cc(F)ccc43)nn2)c2ccc(O)cc2o1` [Compound 10e, 4-{[4-((5-Fluoro-1H-indol-1-yl)methyl)-1H-1,2,3-triazol-1-yl]methyl}-7-hydroxy-2H-chromen-2-one], for which the melting point lay within 181 to 184 °C. The IC50 in series [1] is 45.7 µM. Moreover, in series [2], the IC50 was 47.6 µM. The same compound displayed an IC50 in series [3] of 77.1 µM. In series [4], this compound registered an IC50 of 51.9 µM. Further, the IC50 in series [5] is 57.6 µM.

`O=c1cc(Cn2cc(Cn3cc(Br)c4c(Cl)ncnc43)nn2)c2ccc(O)cc2o1` [Compound 9e, 4-{[4-((5-Bromo-4-chloro-7H-pyrrolo[2,3-d]pyrimidin-7-yl)methyl)-1H-1,2,3-triazol-1-yl]methyl}-7-hydroxy-2H-chromen-2-one] came in with a melting point of more than 250 °C. Moreover, the IC50 in series [1] is 10.8 µM. This compound also registered an IC50 in series [2] of 24.5 µM. In series [3], the IC50 amounted to 47.3 µM. In series [4], this compound returned an IC50 of 45.5 µM. The compound further yielded an IC50 in series [5] of 45.1 µM.

The compound `Fc1ccccc1-n1cc(Cn2cnc3c(Cl)nccc32)nn1` [Compound 5d, 4-Chloro-1-{[1–(2-fluorophenyl)-1H-1,2,3-triazol-4-yl]methyl}-1H-imidazo[4,5-c]pyridine] gave a melting point of 124 to 127 °C. The IC50 in series [1] stood at 23.9 µM. For the same compound, the IC50 in series [2] was more than 100 µM. For the same compound, the IC50 in series [3] was more than 100 µM. Further, the IC50 in series [4] worked out at 73.9 µM. Also, in series [5], the IC50 worked out at 90.2 µM.

For `FC(F)(F)c1ccc(-n2cc(Cn3cnc4c(Cl)ncnc43)nn2)cc1` [Compound 4c, 6-Chloro-9-{[1-(4-(trifluoromethyl)phenyl)-1H-1,2,3-triazol-4-yl]methyl}-9H-purine], the IC50 in series [1] came out at 0.75 µM; in series [2], 12.3 µM; in series [3], 7.9 µM; in series [4], 15.9 µM; in series [5], 14.7 µM.

In turn, `Fc1ccc2c(ccn2Cc2cn(-c3ccc(Cl)cc3)nn2)c1` [Compound 10b] came in with a melting point of 117 to 120 °C. For the same compound, in series [1], the IC50 stood at 58.1 µM. This compound also returned an IC50 in series [2] of 31 µM. Further, the IC50 in series [3] was more than 100 µM. In series [4], this compound showed an IC50 of 40.2 µM. This compound also returned an IC50 in series [5] of 45.8 µM.

`Fc1ccccc1-n1cc(Cn2cnc3ccccc32)nn1` [Compound 12d, 1-{[1–(2-fluorophenyl)-1H-1,2,3-triazol-4-yl]methyl}-1H-benzo[d]imidazole]: the IC50 in series [1] was 30.6 µM; in series [2], 21.9 µM; in series [3] it was 34.7 µM; in series [4], 36.2 µM; in series [5] it was more than 100 µM.

As to `O=c1cc(Cn2cc(Cn3cnc4c(Cl)nccc43)nn2)c2ccc(O)cc2o1` [Compound 5e], the IC50 was 60.5 µM in series [1]; more than 100 µM in series [2]; more than 100 µM in series [3]; more than 100 µM in series [4]; more than 100 µM in series [5].

`O=c1cc(Cn2cc(Cn3cnc4ccnc(Cl)c43)nn2)c2ccc(O)cc2o1` [Compound 7e, 4-{[4-((4-Chloro-3H-imidazo[4,5-c]pyridin-3-yl)methyl)-1H-1,2,3-triazol-1-yl]methyl}-7-hydroxy-2H-chromen-2-one]: the IC50 was 7.62 µM in series [1]; 8.77 µM in series [2]; more than 100 µM in series [3]; more than 100 µM in series [4]; more than 100 µM in series [5].

In the case of `FC(F)(F)c1ccc(-n2cc(Cn3ccc4c(Cl)ncnc43)nn2)cc1` [Compound 8c, 4-Chloro-7-{[1-(4-(trifluoromethyl)phenyl)-1H-1,2,3-triazol-4-yl]methyl}-7H-pyrrolo[2,3-d]pyrimidine], the IC50 in series [1] was 4.62 µM; in series [2] it was 38.8 µM; in series [3], 46.6 µM; in series [4], 46.9 µM; in series [5] it was 37.1 µM.

On to `Fc1ccc(-n2cc(Cn3ccc4c(Cl)ncnc43)nn2)cc1` [Compound 8a, 4-Chloro-7-{[1-(4-fluorophenyl)-1H-1,2,3-triazol-4-yl]methyl}-7H-pyrrolo[2,3-d]pyrimidine], for which the IC50 was 32.2 µM in series [1]; 39.4 µM in series [2]; 48.4 µM in series [3]; 85.4 µM in series [4]; 8.5 µM in series [5].

For `O=c1cc(Cn2cc(Cn3cnc4c(Cl)ncnc43)nn2)c2ccc(O)cc2o1` [Compound 4e, 4-{[4-((6-Chloro-9H-purin-9-yl)methyl)-1H-1,2,3-triazol-1-yl]methyl}-7-hydroxy-2H-chromen-2-one], the IC50 in series [1] is 6.58 µM; in series [2] it was 58 µM; in series [3], more than 100 µM; in series [4], 89 µM; in series [5], 92.5 µM.

Turning to `O=c1cc(Cn2cc(Cn3cnc4ccccc43)nn2)c2ccc(O)cc2o1` [Compound 12e, 4-{4-[((1H-benzo[d]imidazol-1-yl)methyl)-1H-1,2,3-triazol-1-yl]methyl}-7-hydroxy-4a,8a-dihydro-2H-chromen-2-on], the IC50 in series [1], in series [2], in series [3], in series [4] and in series [5] was more than 100 µM each time.

Take `Fc1ccc(-n2cc(Cn3cnc4c(Cl)ncnc43)nn2)cc1` [Compound 4a, 6-Chloro-9-{[1–(4-fluorophenyl)-1 H-1,2,3-triazol-4-yl]methyl}-9 H-purine]: the IC50 in series [1] turned out to be 5.21 µM; in series [2], 34.2 µM; in series [3] it was 33.4 µM; in series [4], 53.2 µM; in series [5] it was 38.9 µM.

For `Fc1ccc2c(ccn2Cc2cn(-c3ccccc3F)nn2)c1` [Compound 10d, 5-Fluoro-1-{[1-(2-fluorophenyl)-1H-1,2,3-triazol-4-yl]methyl}-1H-indole], the IC50 in series [1] was more than 100 µM; in series [2], 82.9 µM; in series [3] it was more than 100 µM; in series [4] it was more than 100 µM; in series [5], more than 100 µM.

In the case of `Clc1ccc(-n2cc(Cn3ccc4c(Cl)ncnc43)nn2)cc1` [Compound 8b, 4-Chloro-7-{[1-(4-chlorophenyl)-1H-1,2,3-triazol-4-yl]methyl}-7H-pyrrolo[2,3-d]pyrimidine], the IC50 in series [1] was 21 µM; in series [2], 65.5 µM; in series [3], 47.7 µM; in series [4], 64.5 µM; in series [5], 44.6 µM.

Take `FC(F)(F)c1ccc(-n2cc(Cn3cnc4ccccc43)nn2)cc1` [Compound 12c, 1-{[1–(4-(trifluoromethyl)phenyl)-1H-1,2,3-triazol-4-yl]methyl}-1H-benzo[d]imidazole]: the IC50 is more than 100 µM in series [1]; 30.6 µM in series [2]; 56.4 µM in series [3]; 14.2 µM in series [4]; more than 100 µM in series [5].

Source of the values: paper PMC6009932, “Small molecule purine and pseudopurine derivatives: synthesis, cytostatic evaluations and investigation of growth inhibitory effect in non-small cell lung cancer A549” (Journal of Enzyme Inhibition and Medicinal Chemistry, 2017).
